The record followed here is patent US7732401B2, “Inhibitor of TGF-β activation reaction” (Riken, priority 2007, dated 2010).

The assay has as its system TGF-β activation. Kind of assay: Inventors' additional tests of TGF-β activation with synthetic KRFK and LSKL peptides. From the text:
Moreover, the group of Murphy-Ullrich at the University of Alabama, U.S.A. investigated the adherent-type TGF-β activation reaction by a glycoprotein, thrombospondin 1, and reported that TGF-β is activated by binding of KRFK sequence corresponding to amino acid numbers 412-415 of thrombospondin 1 to LSKL sequence corresponding to amino acid numbers 54-57 of LAP, and that the synthetic KRFK peptide activates TGF-β, whereas the synthetic LSKL peptide inhibits the TGF-β activation reaction (Schultz-Cherry et al., J. Biol. Chem. 270: 7304-7310, 1995; Crawford et al., Cell 93: 1159-1170, 1998; Ribeiro et al., J. Biol. Chem. 274: 13586-13593, 1999; Murphy-Ullrich and Poczatek Cytokine & Growth Factor Reviews 11: 59-69, 2000). The LSKL sequence derived from amino acid numbers 54-57 of the aforementioned LAP overlaps with the plasmin cleavage site K56-L57 identified by the present inventors. By binding to and cutting this portion, respectively, thrombospondin 1 and proteases may inhibit a noncovalent bond between this portion and active TGF-β molecule, resulting in release of the active TGF-β molecule from a latent complex (namely the TGF-β activation reaction). […] Murphy-Ullrich et al. indicated an involvement of a thrombospondin 1-dependent adherent-type TGF-β activation reaction in the pathogenesis of lung or pancreatic diseases, but not in the pathogenesis of liver diseases.

LSKL [LSKL peptide]: the “inhibition of TGF-β activation” value was “could not reproduce”.
